What follows are compounds tested against ATR kinase (full-length ATR) (Homo sapiens (Human), UniProt Q13535) (assay: ATR inhibition assay (radioactive-phosphate incorporation)). Details: not given.
Format: biochemical
In short: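 Radiometric 33P incorporation by 5 nM full-length ATR into 800 μM target peptide with 10 μM [γ-33P]ATP, in 50 mM Tris/HCl pH 7.5, 10 mM MgCl2, 1 mM DTT, 7% DMSO, 25° C. Compound pre-incubated 10 minutes; reaction stopped after 24 hours, captured on phosphocellulose. Ki(app) from non-linear regression of initial rates.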

ATR kinase (full-length ATR), sequence (Q13535 whole entry): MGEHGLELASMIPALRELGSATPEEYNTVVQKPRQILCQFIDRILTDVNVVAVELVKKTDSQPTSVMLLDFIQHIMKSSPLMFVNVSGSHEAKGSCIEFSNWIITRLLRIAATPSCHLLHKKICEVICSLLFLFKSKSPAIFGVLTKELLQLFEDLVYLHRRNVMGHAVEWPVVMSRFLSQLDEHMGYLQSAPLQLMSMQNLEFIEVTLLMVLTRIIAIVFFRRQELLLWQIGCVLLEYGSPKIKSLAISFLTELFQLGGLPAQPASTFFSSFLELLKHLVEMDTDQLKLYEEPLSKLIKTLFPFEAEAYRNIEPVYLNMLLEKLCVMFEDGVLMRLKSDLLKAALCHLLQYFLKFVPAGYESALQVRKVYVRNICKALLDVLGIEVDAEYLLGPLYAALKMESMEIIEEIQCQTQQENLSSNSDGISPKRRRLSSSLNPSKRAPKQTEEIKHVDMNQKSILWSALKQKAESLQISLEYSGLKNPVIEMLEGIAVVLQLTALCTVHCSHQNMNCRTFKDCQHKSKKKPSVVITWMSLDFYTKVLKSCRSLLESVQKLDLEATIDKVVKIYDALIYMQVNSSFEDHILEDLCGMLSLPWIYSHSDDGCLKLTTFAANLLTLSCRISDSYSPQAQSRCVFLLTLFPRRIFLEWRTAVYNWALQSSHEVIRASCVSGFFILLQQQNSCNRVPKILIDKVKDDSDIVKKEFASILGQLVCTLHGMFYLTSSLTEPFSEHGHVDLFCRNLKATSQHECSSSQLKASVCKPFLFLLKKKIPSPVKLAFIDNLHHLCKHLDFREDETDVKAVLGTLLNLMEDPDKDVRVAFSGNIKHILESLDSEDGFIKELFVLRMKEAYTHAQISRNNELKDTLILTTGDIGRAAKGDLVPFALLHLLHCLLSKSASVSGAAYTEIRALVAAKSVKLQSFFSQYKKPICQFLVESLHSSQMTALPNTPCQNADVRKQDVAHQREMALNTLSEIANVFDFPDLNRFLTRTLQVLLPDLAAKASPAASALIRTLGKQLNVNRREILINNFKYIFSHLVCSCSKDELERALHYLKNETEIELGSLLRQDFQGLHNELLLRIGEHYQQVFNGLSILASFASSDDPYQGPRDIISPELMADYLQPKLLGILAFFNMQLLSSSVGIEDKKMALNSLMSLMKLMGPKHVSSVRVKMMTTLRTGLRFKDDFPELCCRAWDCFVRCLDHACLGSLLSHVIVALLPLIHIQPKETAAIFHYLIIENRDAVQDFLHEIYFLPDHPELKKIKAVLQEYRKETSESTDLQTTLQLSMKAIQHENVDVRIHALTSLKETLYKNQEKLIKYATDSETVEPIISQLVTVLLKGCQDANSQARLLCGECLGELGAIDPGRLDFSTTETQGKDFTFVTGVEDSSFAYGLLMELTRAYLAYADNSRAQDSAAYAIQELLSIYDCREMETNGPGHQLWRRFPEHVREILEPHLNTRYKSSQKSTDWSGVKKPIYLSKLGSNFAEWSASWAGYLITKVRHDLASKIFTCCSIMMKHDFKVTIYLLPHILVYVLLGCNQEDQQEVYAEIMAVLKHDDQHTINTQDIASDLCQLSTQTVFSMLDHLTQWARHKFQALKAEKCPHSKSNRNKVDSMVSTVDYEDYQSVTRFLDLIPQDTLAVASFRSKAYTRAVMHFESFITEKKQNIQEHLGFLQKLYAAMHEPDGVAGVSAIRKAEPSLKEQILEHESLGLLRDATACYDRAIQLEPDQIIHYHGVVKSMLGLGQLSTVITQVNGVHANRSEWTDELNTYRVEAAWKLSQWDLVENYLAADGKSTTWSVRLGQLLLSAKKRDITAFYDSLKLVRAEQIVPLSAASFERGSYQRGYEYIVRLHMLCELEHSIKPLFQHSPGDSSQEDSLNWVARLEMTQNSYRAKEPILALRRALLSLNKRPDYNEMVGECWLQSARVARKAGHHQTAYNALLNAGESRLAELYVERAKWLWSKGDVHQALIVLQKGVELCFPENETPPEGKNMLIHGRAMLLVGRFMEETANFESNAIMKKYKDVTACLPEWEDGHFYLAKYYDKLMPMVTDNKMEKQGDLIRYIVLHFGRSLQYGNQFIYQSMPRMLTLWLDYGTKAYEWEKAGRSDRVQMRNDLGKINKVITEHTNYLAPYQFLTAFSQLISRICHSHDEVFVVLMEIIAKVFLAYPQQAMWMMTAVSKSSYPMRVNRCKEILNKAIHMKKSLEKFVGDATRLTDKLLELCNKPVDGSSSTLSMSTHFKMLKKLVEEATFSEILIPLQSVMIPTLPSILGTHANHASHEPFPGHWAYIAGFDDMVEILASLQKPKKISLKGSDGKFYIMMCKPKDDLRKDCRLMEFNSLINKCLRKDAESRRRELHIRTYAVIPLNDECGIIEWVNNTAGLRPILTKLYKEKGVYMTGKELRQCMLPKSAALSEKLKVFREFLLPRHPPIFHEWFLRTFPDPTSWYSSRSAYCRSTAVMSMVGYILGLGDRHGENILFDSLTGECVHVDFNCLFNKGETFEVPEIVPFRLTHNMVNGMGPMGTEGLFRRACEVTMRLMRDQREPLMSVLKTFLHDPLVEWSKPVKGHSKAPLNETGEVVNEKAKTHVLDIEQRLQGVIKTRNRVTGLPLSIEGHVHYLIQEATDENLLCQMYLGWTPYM

Ki	Structure (SMILES)
1000 to 5000 nM	CN1CCN(c2ccncc2NC(=O)c2c(N)nn3cc(C(C)(C)C#N)cnc23)CC1 [I-N-76, 2-amino-6-(2-cyanopropan-2-yl)-N-(4-(4-methylpiperazin-1-yl)pyridin-3-yl)pyrazolo[1,5-a]pyrimidine-3-carboxamide]

Same assay, conditions: Ki(app), 5 nM full-length ATR, 10 μM ATP, 25° C.

Ki	Structure (SMILES)
10 to 1000 nM	Nc1nn2cc(Cl)cnc2c1C(=O)Nc1cnccc1N1CCN2CCC[C@@H]2C1 [I-N-65, (R)-2-amino-6-chloro-N-(4-(hexahydropyrrolo[1,2-a]pyrazin-2(1H)-yl)pyridin-3-yl)pyrazolo[1,5-a]pyrimidine-3-carboxamide]
10 to 1000 nM	CC1(O)CCN(c2ccncc2NC(=O)c2c(N)nn3cc(Cl)cnc23)CC1 [I-N-66, 2-amino-6-chloro-N-(4-(4-hydroxy-4-methylpiperidin-1-yl)pyridin-3-yl)pyrazolo[1,5-a]pyrimidine-3-carboxamide]
10 to 1000 nM	Nc1nn2cc(Cl)cnc2c1C(=O)Nc1cnccc1N1CCN(CC(F)(F)F)CC1 [I-N-67, 2-amino-6-chloro-N-(4-(4-(2,2,2-trifluoroethyl)piperazin-1-yl)pyridin-3-yl)pyrazolo[1,5-a]pyrimidine-3-carboxamide]
10 to 1000 nM	Nc1nn2cc(Cl)cnc2c1C(=O)Nc1cnccc1N1CCNC(C(F)(F)F)C1 (centres unmarked) [I-N-70, 2-amino-6-chloro-N-(4-(3-(trifluoromethyl)piperazin-1-yl)pyridin-3-yl)pyrazolo[1,5-a]pyrimidine-3-carboxamide]
10 to 1000 nM	COC(=O)C1CCN(c2ccncc2NC(=O)c2c(N)nn3cc(Cl)cnc23)CC1 [I-N-74, methyl-1-(3-(2-amino-6-chloropyrazolo[1,5-a]pyrimidine-3-carboxamido)pyridin-4-yl)piperidine-4-carboxylate]
10 to 1000 nM	Nc1nn2cc(Cl)cnc2c1C(=O)Nc1cnccc1N1CCn2cncc2C1 [I-N-75, 2-amino-6-chloro-N-(4-(5,6-dihydroimidazo[1,5-a]pyrazin-7(8H)-yl)pyridin-3-yl)pyrazolo[1,5-a]pyrimidine-3-carboxamide]
10 to 1000 nM	N#CCc1cnc2c(C(=O)Nc3cnccc3N3CCCC3)c(N)nn2c1 [I-N-77, 2-amino-6-(cyanomethyl)-N-(4-(pyrrolidin-1-yl)pyridin-3-yl)pyrazolo[1,5-a]pyrimidine-3-carboxamide]
10 to 1000 nM	CC(C#N)c1cnc2c(C(=O)Nc3cnccc3N3CCN(C)CC3)c(N)nn2c1 (centres unmarked) [I-N-78, 2-amino-6-(1-cyanoethyl)-N-(4-(4-methylpiperazin-1-yl)pyridin-3-yl)pyrazolo[1,5-a]pyrimidine-3-carboxamide]
10 to 1000 nM	CN1CCN(c2c(F)cncc2NC(=O)c2c(N)nn3cc(CC#N)cnc23)CC1 [I-N-80, 2-amino-6-(cyanomethyl)-N-(5-fluoro-4-(4-methylpiperazin-1-yl)pyridin-3-yl)pyrazolo[1,5-a]pyrimidine-3-carboxamide]
< 10 nM	N#CCc1cnc2c(C(=O)Nc3cnccc3N3CCC(O)CC3)c(N)nn2c1 [I-N-83, 2-amino-6-(cyanomethyl)-N-(4-(4-hydroxypiperidin-1-yl)pyridin-3-yl)pyrazolo[1,5-a]pyrimidine-3-carboxamide]
< 10 nM	N#CCc1cnc2c(C(=O)Nc3cnccc3N3CCCCC3)c(N)nn2c1 [I-N-84, 2-amino-6-(cyanomethyl)-N-(4-(piperidin-1-yl)pyridin-3-yl)pyrazolo[1,5-a]pyrimidine-3-carboxamide]
10 to 1000 nM	CNC1CCN(c2ccncc2NC(=O)c2c(N)nn3cc(Cl)cnc23)CC1 [I-N-87, 2-amino-6-chloro-N-(4-(4-(methylamino)piperidin-1-yl)pyridin-3-yl)pyrazolo[1,5-a]pyrimidine-3-carboxamide]
10 to 1000 nM	Nc1nn2cc(Cl)cnc2c1C(=O)Nc1cnccc1N1CCNCC1 [I-N-88, 2-amino-6-chloro-N-(4-(piperazin-1-yl)pyridin-3-yl)pyrazolo[1,5-a]pyrimidine-3-carboxamide]
< 10 nM	NCC1CCN(c2ccncc2NC(=O)c2c(N)nn3cc(Cl)cnc23)CC1 [I-N-91, 2-amino-N-(4-(4-(aminomethyl)piperidin-1-yl)pyridin-3-yl)-6-chloropyrazolo[1,5-a]pyrimidine-3-carboxamide]
10 to 1000 nM	Nc1nn2cc(Cl)cnc2c1C(=O)Nc1cnccc1N1CCC(N2CC[S+]([O-])CC2)CC1 [I-N-100, 2-amino-6-chloro-N-(4-(4-(1-oxidothiomorpholino)piperidin-1-yl)pyridin-3-yl)pyrazolo[1,5-a]pyrimidine-3-carboxamide]

More lines, now with the values behind:

Structure (SMILES)	Ki
Nc1nn2cc(Cl)cnc2c1C(=O)Nc1cnccc1N1CC[S+]([O-])CC1 [I-N-68, 2-amino-6-chloro-N-(4-(1-oxidothiomorpholino)pyridin-3-yl)pyrazolo[1,5-a]pyrimidine-3-carboxamide]	10 to 1000 nM
CC(C)(O)C1CCN(c2ccncc2NC(=O)c2c(N)nn3cc(Cl)cnc23)CC1 [I-N-69, 2-amino-6-chloro-N-(4-(4-(2-hydroxypropan-2-yl)piperidin-1-yl)pyridin-3-yl)pyrazolo[1,5-a]pyrimidine-3-carboxamide]	10 to 1000 nM
Nc1nn2cc(Cl)cnc2c1C(=O)Nc1cnccc1N1CCN2CCC[C@H]2C1 [I-N-71, (S)-2-amino-6-chloro-N-(4-(hexahydropyrrolo[1,2-a]pyrazin-2(1H)-yl)pyridin-3-yl)pyrazolo[1,5-a]pyrimidine-3-carboxamide]	10 to 1000 nM
CC1CN(C)CCN1c1ccncc1NC(=O)c1c(N)nn2cc(Cl)cnc12 (centres unmarked) [I-N-72, 2-amino-6-chloro-N-(4-(2,4-dimethylpiperazin-1-yl)pyridin-3-yl)pyrazolo[1,5-a]pyrimidine-3-carboxamide]	10 to 1000 nM
COC1CCN(c2ccncc2NC(=O)c2c(N)nn3cc(Cl)cnc23)CC1 [I-N-73, 2-amino-6-chloro-N-(4-(4-methoxypiperidin-1-yl)pyridin-3-yl)pyrazolo[1,5-a]pyrimidine-3-carboxamide]	10 to 1000 nM
N#CCc1cnc2c(C(=O)Nc3cnccc3N3CCCCCC3)c(N)nn2c1 [I-N-79, 2-amino-N-(4-(azepan-1-yl)pyridin-3-yl)-6-(cyanomethyl)pyrazolo[1,5-a]pyrimidine-3-carboxamide]	10 to 1000 nM
N#CCc1cnc2c(C(=O)Nc3cnccc3N3CCOCC3)c(N)nn2c1 [I-N-81, 2-amino-6-(cyanomethyl)-N-(4-morpholinopyridin-3-yl)pyrazolo[1,5-a]pyrimidine-3-carboxamide]	10 to 1000 nM
CN1CCN(c2ccncc2NC(=O)c2c(N)nn3cc(CC#N)cnc23)CC1 [I-N-82, 2-amino-6-(cyanomethyl)-N-(4-(4-methylpiperazin-1-yl)pyridin-3-yl)pyrazolo[1,5-a]pyrimidine-3-carboxamide]	< 10 nM
CN1CCN(c2c(Cl)cncc2NC(=O)c2c(N)nn3cc(F)cnc23)CC1 [I-N-85, 2-amino-N-(5-chloro-4-(4-methylpiperazin-1-yl)pyridin-3-yl)-6-fluoropyrazolo[1,5-a]pyrimidine-3-carboxamide]	10 to 1000 nM
Nc1nn2cc(Cl)cnc2c1C(=O)Nc1cnccc1N1CCC(N)CC1 [I-N-86, 2-amino-N-(4-(4-aminopiperidin-1-yl)pyridin-3-yl)-6-chloropyrazolo[1,5-a]pyrimidine-3-carboxamide]	10 to 1000 nM
N#CCc1cnc2c(C(=O)Nc3cnccc3N3CCNCC3)c(N)nn2c1 [I-N-89, 2-amino-6-(cyanomethyl)-N-(4-(piperazin-1-yl)pyridin-3-yl)pyrazolo[1,5-a]pyrimidine-3-carboxamide]	10 to 1000 nM
N#CCc1cnc2c(C(=O)Nc3cnccc3N3CCOC(CN)C3)c(N)nn2c1 (centres unmarked) [I-N-90, 2-amino-N-(4-(2-(aminomethyl)morpholino)pyridin-3-yl)-6-(cyanomethyl)pyrazolo[1,5-a]pyrimidine-3-carboxamide]	10 to 1000 nM
Nc1nn2cc(Cl)cnc2c1C(=O)Nc1cnccc1N1CCC(N2CCC2)CC1 [I-N-93, 2-amino-N-(4-(4-(azetidin-1-yl)piperidin-1-yl)pyridin-3-yl)-6-chloropyrazolo[1,5-a]pyrimidine-3-carboxamide]	10 to 1000 nM
CN(C)C1CN(C2CCN(c3ccncc3NC(=O)c3c(N)nn4cc(Cl)cnc34)CC2)C1 [I-N-94, 2-amino-6-chloro-N-(4-(4-(3-(dimethylamino)azetidin-1-yl)piperidin-1-yl)pyridin-3-yl)pyrazolo[1,5-a]pyrimidine-3-carboxamide]	10 to 1000 nM
COC1CCN(C2CCN(c3ccncc3NC(=O)c3c(N)nn4cc(Cl)cnc34)CC2)C1 (centres unmarked) [I-N-95, 2-amino-6-chloro-N-(4-(4-(3-methoxypyrrolidin-1-yl)piperidin-1-yl)pyridin-3-yl)pyrazolo[1,5-a]pyrimidine-3-carboxamide]	10 to 1000 nM
CN1CCN(C2CCN(c3ccncc3NC(=O)c3c(N)nn4cc(Cl)cnc34)CC2)CC1 [I-N-97, 2-amino-6-chloro-N-(4-(4-(4-methylpiperazin-1-yl)piperidin-1-yl)pyridin-3-yl)pyrazolo[1,5-a]pyrimidine-3-carboxamide]	10 to 1000 nM
Nc1nn2cc(Cl)cnc2c1C(=O)Nc1cnccc1N1CCC(N2CC[C@@H](F)C2)CC1 [I-N-98, (R)-2-amino-6-chloro-N-(4-(4-(3-fluoropyrrolidin-1-yl)piperidin-1-yl)pyridin-3-yl)pyrazolo[1,5-a]pyrimidine-3-carboxamide]	10 to 1000 nM
Nc1nn2cc(Cl)cnc2c1C(=O)Nc1cnccc1N1CCC(N2CCC3(COC3)C2)CC1 [I-N-99, N-(4-(4-(2-oxa-6-azaspiro[3.4]octan-6-yl)piperidin-1-yl)pyridin-3-yl)-2-amino-6-chloropyrazolo[1,5-a]pyrimidine-3-carboxamide]	10 to 1000 nM
Nc1nn2cc(Cl)cnc2c1C(=O)Nc1cnccc1N1CCC(N2CCn3cncc3C2)CC1 [I-N-101, 2-amino-6-chloro-N-(4-(4-(5,6-dihydroimidazo[1,5-a]pyrazin-7(81-1)-yl)piperidin-1-yl)pyridin-3-yl)pyrazolo[1,5-a]pyrimidine-3-carboxamide]	10 to 1000 nM
